From patent US12109176B1, “Effect of glycerol on biofilm forming bacteria and fungi that changes the microbes sensitivity to pro and anti-biofilm non-toxic, non-bonded plasma amino acids and amino acid derivatives” (priority 2023, dated 2024) come the findings set out here.

Molecules are shown by their SMILES. Entries after “also recorded” stand apart in the source; their conditions may differ.

Test [1] concerns bacterial and fungal biofilm. Put plainly: In vitro testing on bacterial and fungal biofilm (assay not told apart). Type of test: cell-based. To be noted: in vitro testing. Here is the method: (§1) Two types of biofilm assays were performed: an inhibition assay and a disruption assay. The inhibition assay assesses the compound's ability to prevent biofilm development, while the disruption assay assesses the compound's ability to break up an existing mature biofilm.
(§2) All bacterial biofilm solutions were prepared in Tryptic Soy Broth (TSB), supplemented with 1% glucose (henceforth referred to as TSB-G). All subsequent procedures were performed in a manner that maintained sterility. A solution of each amino acid or an amino acid derivative to be tested was prepared in weight to volume concentrations ranging from 0.1-5.0%. Amino acids and amino acid derivatives were also tested in combinations. Compound solutions were homogenized with gentle agitation in the dark (4° C., 24 hours) before use.
(§3) 32 Amino acids and 2 amino acid derivatives of the amino acid serine that occur freely in human blood were tested. […] 31 of the 32 amino acids that were tested were the L-Isomers. Glycine has no stereoisomers. The 2 amino acid derivatives, ethanolamine and phosphoethanolamine were also tested. All biofilm assays were performed using 384-well non-tissue culture-treated polystyrene plates. The fungal species tested are as follows: Candida albicans, Candida guilliermondii, Candida parapsilosis, Candida glabrata, Candida tropicalis and Candida dubliniensis. The bacterial species tested are as follows: Staphylococci (standard wild type and methicillin-resistant strain USA300), Escherichia coli, Pseudomonas aeruginosa and Staphylococcus epidermidis.
(§4) Fungal strains were streaked on Yeast Peptone Dextrose (YPD) agar plates and incubated at 30° C. for 48 hours. A single colony from each strain to be tested was inoculated into YPD broth and grown for 12 hours at 30° C., shaking at 225 rpm. […] The cells were allowed to adhere to the plate for 90 minutes at 37° C. with shaking (350 rpm). […] The plate was further incubated for 24 hours at 37° C. with shaking (350 rpm). Media was carefully aspirated and the biofilm was measured by optical density at 600 nm. […] The cells were allowed to adhere to the plate for 90 minutes at 37° C. with shaking (350 rpm). […] The plate was further incubated for 24 hours at 37° C. with shaking (350 rpm). […] The plate was further incubated for 24 hours at 37° C. with shaking (350 rpm). Media was carefully aspirated, and the biofilm was measured by optical density at 600 nm.
(§5) Bacterial strains were streaked on Blood Agar plates (5% sheep blood in Tryptic Soy Broth) and incubated at 37° C. for 24 hours. A single colony from each strain to be tested was inoculated in a TSB broth and grown for 12 hours, at 37° C. with shaking (225 rpm). For the bacterial biofilm inhibition assays, 1 μL of saturated overnight cell culture was added to either 80 μL of TSB-G, or TSB-G supplemented with the amino acid compound solution to be tested, in a 384-well plate. The cells were allowed to adhere to the plate for 60 minutes at 37° C. without shaking. The media was carefully aspirated and 80 μL of TSB-G, or TSB-G supplemented with the amino acid compound solution was added to the plate. The plate was further incubated for 24 hours at 37° C. without shaking. Media was carefully aspirated and the biofilm was measured by optical density at 600 nm. Eight or twelve replicates were performed for each tested condition and the reported values are normalized to the control (TSB-G media only). For the bacterial biofilm disruption assays, 80 µL of TSB-G was added to the plate, along with 1 μL of overnight cell culture. The cells were allowed to adhere to the plate for 60 minutes at 37° C. with no shaking. The media was carefully aspirated and 80 μL of TSB-G was added to the plate. The plate was further incubated for 24 hours at 37° C. with no shaking. Media was carefully aspirated from the mature biofilm and 80 μL of TSB-G, or TSB-G supplemented with the amino acid to be tested, was gently added to the plate.

For test [2], the system named is bacterial (S. aureus) biofilm and fungal biofilm (C. albicans). The experiment in a line: Biofilm inhibition assay, bacterial and fungal taken together. To be noted: symbol marks the assay. The test is classed as cell-based. Here is the method: as §1, §2, §3, §4, §5
Test [3] relates to bacterial (S. aureus) biofilm. The experiment in a line: Bacterial biofilm inhibition assay. Type of test: cell-based, Staphylococcus aureus. The procedure: as §1, §2, §3
(§6) Bacterial strains were streaked on Blood Agar plates (5% sheep blood in Tryptic Soy Broth) and incubated at 37° C. for 24 hours. A single colony from each strain to be tested was inoculated in a TSB broth and grown for 12 hours, at 37° C. with shaking (225 rpm). For the bacterial biofilm inhibition assays, 1 μL of saturated overnight cell culture was added to either 80 μL of TSB-G, or TSB-G supplemented with the amino acid compound solution to be tested, in a 384-well plate. The cells were allowed to adhere to the plate for 60 minutes at 37° C. without shaking. The media was carefully aspirated and 80 μL of TSB-G, or TSB-G supplemented with the amino acid compound solution was added to the plate. The plate was further incubated for 24 hours at 37° C. without shaking. Media was carefully aspirated and the biofilm was measured by optical density at 600 nm. Eight or twelve replicates were performed for each tested condition and the reported values are normalized to the control (TSB-G media only). For the bacterial biofilm disruption assays, 80 µL of TSB-G was added to the plate, along with 1 μL of overnight cell culture. The cells were allowed to adhere to the plate for 60 minutes at 37° C. with no shaking. The media was carefully aspirated and 80 μL of TSB-G was added to the plate. The plate was further incubated for 24 hours at 37° C. with no shaking. Media was carefully aspirated from the mature biofilm and 80 μL of TSB-G, or TSB-G supplemented with the amino acid to be tested, was gently added to the plate. The plate was further incubated for 24 hours at 37° C. without shaking. Media was aspirated and the biofilm was measured by optical density at 600 nm. Twelve replicates were performed for each tested condition and the reported values are normalized to the control (TSB-G media only).

For test [4], the system named is bacterial (S. aureus) biofilm. Put plainly: Bacterial biofilm disruption assay. The test is classed as cell-based, Staphylococcus aureus. Here is the method: as §1, §2, §3, §6
The subject of test [5] is bacterial biofilm. Put plainly: In vitro testing on bacterial biofilm (inhibition and/or disruption). The test is classed as cell-based. To be noted: in vitro testing. Here is the method: as §1, §2, §3, §6
The subject of test [6] is fungal biofilm (C. albicans). Put plainly: Fungal biofilm disruption assay. The test is classed as cell-based, Candida albicans. The procedure:
as §1, §2, §3, §4

The mark [7] stands for this setting: Table D, Neutral = no effect on the biofilm.
Setting [8] is: Table E, in the absence of an infusion of glycerol.
Where [9] appears, read: Table F, in the presence of a sufficient concentration of glycerol.

Regarding `N[C@@H](Cc1c[nH]cn1)C(=O)O` [Histidine, L-histidine], in test [1], the “effect on bacterial and fungal biofilm (in words)” value is on record as “neutral, having no effect on biofilm; also recorded: neutral”. Also, the “Neutral (square: Inhibition Biofilm Assay)” value in test [2] (setting [7]), in test [2] (setting [8]) and in test [2] (setting [9]) was “▪ (Single square [ie. ▪] signifies little effect on the Inhibition Biofilm Assay (from about 10 to less than 30%))” throughout.

`NCCOP(=O)(O)O` [Phospho-ethanolamine, phosphoethanolamine]: the “Reduce or Inhibit B Biofilm (squares: Inhibition Biofilm Assay)” value in test [3] (Table D, 0.1 to 5.0%) was “▪ (Single square [ie. ▪] signifies little effect on the Inhibition Biofilm Assay (from about 10 to less than 30%))”; in test [3] (setting [9]), “▪ (Single square [ie. ▪] signifies little effect on the Inhibition Biofilm Assay (from about 10 to less than 30%))”. Further, the “Reduce or Inhibit B Biofilm (dots: Disruption Biofilm Assay)” value was “● (Single dot [ie. ●] signifies little effect on the Disruption Biofilm Assay (from about 10 to less than 30%))” in test [4] (Table D, 0.1 to 5.0%) and “● (Single dot [ie. ●] signifies little effect on the Disruption Biofilm Assay (from about 10 to less than 30%))” in test [4] (setting [9]). Further, the “effect on bacterial biofilm (in words)” value in test [5] is listed as “antibacterial biofilm effect”.

As to `C[C@H](N)C(=O)O` [Alanine, L-alanine], the “Neutral (square: Inhibition Biofilm Assay)” value in test [2] (setting [7]), in test [2] (setting [8]) and in test [2] (setting [9]) was “▪ (Single square [ie. ▪] signifies little effect on the Inhibition Biofilm Assay (from about 10 to less than 30%))” throughout. Further, in test [6] (Table D, 0.1 to 5.0%), the “Reduce or Inhibit F Biofilm (dots: Disruption Biofilm Assay)” value (“Reduce or Inhibit F Biofilm” for short) is “● (Single dot [ie. ●] signifies little effect on the Disruption Biofilm Assay (from about 10 to less than 30%))”. For the same molecule, in test [5], the “effect on bacterial biofilm (in words)” value is given as “promoted bacterial biofilm formation”.

Turning to `NC(CCCC(=O)O)C(=O)O` (stereo not drawn) [2 Aminoadipic Acid, 2-aminoadipic acid], the “Reduce or Inhibit B Biofilm (squares: Inhibition Biofilm Assay)” value is “▪ (Single square [ie. ▪] signifies little effect on the Inhibition Biofilm Assay (from about 10 to less than 30%))” in test [3] (Table D, 0.1 to 5.0%) and “▪ (Single square [ie. ▪] signifies little effect on the Inhibition Biofilm Assay (from about 10 to less than 30%))” in test [3] (setting [9]). The “Reduce or Inhibit B Biofilm (dots: Disruption Biofilm Assay)” value was “● (Single dot [ie. ●] signifies little effect on the Disruption Biofilm Assay (from about 10 to less than 30%))” in test [4] (Table D, 0.1 to 5.0%) and “● (Single dot [ie. ●] signifies little effect on the Disruption Biofilm Assay (from about 10 to less than 30%))” in test [4] (setting [9]). Moreover, the “effect on bacterial biofilm (in words)” value in test [5] is reported as “antibacterial biofilm effect”.

As for `N[C@@H](Cc1c[nH]c2ccccc12)C(=O)O` [Tryptophan, L-tryptophan], the “Reduce or Inhibit F Biofilm” value is “● (Single dot [ie. ●] signifies little effect on the Disruption Biofilm Assay (from about 10 to less than 30%))” in test [6] (Table D, 0.1 to 5.0%) and “● (Single dot [ie. ●] signifies little effect on the Disruption Biofilm Assay (from about 10 to less than 30%))” in test [6] (setting [9]). For the same molecule, the “effect on bacterial biofilm (in words)” value in test [5] is listed as “promoted bacterial biofilm formation”.

With `CC[C@H](C)[C@H](N)C(=O)O` [Isoleucine, L-isoleucine], the “Promote B Biofilm (squares: Inhibition Biofilm Assay)” value was “▪ (Single square [ie. ▪] signifies little effect on the Inhibition Biofilm Assay (from about 10 to less than 30%))” in test [3] (Table D, 0.1 to 5.0%) and “▪ (Single square [ie. ▪] signifies little effect on the Inhibition Biofilm Assay (from about 10 to less than 30%))” in test [3] (setting [8]). In addition, the “effect on bacterial biofilm (in words)” value in test [5] is recorded as “promoted bacterial biofilm formation”.

As to `N[C@@H](CO)C(=O)O` [Serine, L-serine], the “Reduce or Inhibit F Biofilm” value in test [6] (Table D, 0.1 to 5.0%) is “● (Single dot [ie. ●] signifies little effect on the Disruption Biofilm Assay (from about 10 to less than 30%))”; in test [6] (setting [9]) it was “● (Single dot [ie. ●] signifies little effect on the Disruption Biofilm Assay (from about 10 to less than 30%))”. The “effect on bacterial biofilm (in words)” value in test [5] is “promoted bacterial biofilm formation”.

Consider `N[C@@H](CCSC[C@H](N)C(=O)O)C(=O)O` [Cystathionine, L-cystathionine], for which the “Neutral (square: Inhibition Biofilm Assay)” value in test [2] (setting [7]), in test [2] (setting [8]) and in test [2] (setting [9]) was “▪ (Single square [ie. ▪] signifies little effect on the Inhibition Biofilm Assay (from about 10 to less than 30%))” each time. In addition, the “Reduce or Inhibit B Biofilm (dots: Disruption Biofilm Assay)” value in test [4] (Table D, 0.1 to 5.0%) is “● (Single dot [ie. ●] signifies little effect on the Disruption Biofilm Assay (from about 10 to less than 30%))”; in test [4] (setting [9]) it was “● (Single dot [ie. ●] signifies little effect on the Disruption Biofilm Assay (from about 10 to less than 30%))”. Further, the “effect on bacterial biofilm (in words)” value in test [5] was “antibacterial biofilm effect”.

In the case of `NC(=O)C[C@H](N)C(=O)O` [Asparagine, L-asparagine], the “Promote B Biofilm (squares: Inhibition Biofilm Assay)” value is “▪ (Single square [ie. ▪] signifies little effect on the Inhibition Biofilm Assay (from about 10 to less than 30%))” in test [3] (Table D, 0.1 to 5.0%) and “▪ (Single square [ie. ▪] signifies little effect on the Inhibition Biofilm Assay (from about 10 to less than 30%))” in test [3] (setting [8]). Also, the “effect on bacterial biofilm (in words)” value in test [5] is recorded as “promoted bacterial biofilm formation”.

For the molecule `N[C@@H](Cc1ccc(O)cc1)C(=O)O` [Tyrosine, L-tyrosine], the “effect on bacterial and fungal biofilm (in words)” value in test [1] was “neutral effect on biofilm”; in test [1] (listed as tyrosine) it was “neutral, having no effect on biofilm”.
